This is an account of results in patent US8895568B2, “Compositions comprising substituted pteridines as agrochemicals” (Dow AgroSciences LLC, priority 2009, dated 2014).

Format in all cases: in vivo
The subject of one experiment is Colletotricum lagenarium. Put plainly: Cucumber Anthracnose (COLLLA), foliar spray, percent disease control.
For experiment [1], the system named is Pseudoperonospora cubensis. Put plainly: Cucumber Downy Mildew (PSPECU), foliar spray, percent disease control. As to conditions: read-out: PSPECU percent control.
The test system of the next experiment is Cochliobolus sativus. The experiment in a line: Spot Blotch of Wheat (COCHSA), foliar spray, percent disease control.
For experiment [2], the system named is DROSME, AEDSAE, LAPHEG, or HELIVI. Put plainly: Insecticidal activity, active if any of DROSME, AEDSAE, LAPHEG or HELIVI was controlled at 80% or more. As to conditions: read-out: >80% mortality on any insect species @ 4000 ppm.
Where [3] appears, read: Bipolaris sorokiniana, foliar; read-out: COCHSA percent control.
The mark [4] stands for this setting: Bipolaris sorokiniana; foliar spray; read-out: COCHSA percent control.

Structures are written as SMILES. Like-named read-outs stand apart in the source and are kept apart here.

Regarding `Fc1cc(C(F)(F)F)ccc1Oc1ccc(CCNc2ncnc3nccnc23)cc1` [Compound 113], the figures for the pest or weed control at 200 µg/mL (in the experiment on Colletotricum lagenarium (foliar); in experiment [1] (foliar); in the experiment with Cochliobolus sativus (setting [3])) were 0 to 49%, 80 to 100% and 0 to 49%, respectively. In addition, the pest or weed control at 4000 ppm in experiment [2] is over 80%.
With `CC(C)c1ccnc(Oc2ccc(CCNc3ncnc4nccnc34)cc2)c1` [Compound 203], the pest or weed control at 200 µg/mL with Colletotricum lagenarium (foliar spray) lay within 50 to 79%; in experiment [1] (foliar spray), 80 to 100%; in the experiment with Cochliobolus sativus (setting [4]) it was 0 to 49%. Also, the pest or weed control at 4000 ppm in experiment [2] is over 80%.
Take `Cc1nc2ncnc(NCCc3ccc(Oc4cc(C(F)(F)F)ccn4)cc3)c2nc1C` [Compound 162]: the results for the pest or weed control at 200 µg/mL (with Colletotricum lagenarium (foliar); in experiment [1] (foliar); in the experiment on Cochliobolus sativus (setting [3])) were 0 to 49%, 80 to 100% and 0 to 49%, respectively. Also, in experiment [2], the pest or weed control at 4000 ppm was over 80%.
Consider `Cc1c(CCNc2ncnc3nccnc23)ccc(Oc2ncc(C(F)(F)F)cc2F)c1C` [Compound 148], for which the pest or weed control at 200 µg/mL in the experiment on Colletotricum lagenarium (foliar) lay within 0 to 49%; in experiment [1] (foliar), 80 to 100%; in the experiment on Cochliobolus sativus (setting [3]) it was 0 to 49%. Also, in experiment [2], the pest or weed control at 4000 ppm was over 80%.
For the compound `N#Cc1ccc(Oc2ccc(CCNc3ncnc4nccnc34)c(F)c2)nc1` [Compound 104], the results for the pest or weed control at 200 µg/mL (in the experiment with Colletotricum lagenarium (foliar); in experiment [1] (foliar); with Cochliobolus sativus (setting [3])) were 0 to 49%, 80 to 100% and 0 to 49%, respectively. In addition, the pest or weed control at 4000 ppm in experiment [2] was over 80%.
For `Fc1cc(CCNc2ncnc3nccnc23)ccc1Oc1cc(C(F)(F)F)ccn1` [Compound 93], the pest or weed control at 200 µg/mL lay within 80 to 100% with Colletotricum lagenarium (foliar), 80 to 100% in experiment [1] (foliar) and 50 to 79% in the experiment with Cochliobolus sativus (setting [3]). Also, the pest or weed control at 4000 ppm in experiment [2] is over 80%.
In the case of `Cc1cc(CCNc2ncnc3nccnc23)ccc1Oc1ccc(C(F)(F)F)cn1` [Compound 141], the pest or weed control at 200 µg/mL fell in the range of 50 to 79% with Colletotricum lagenarium (foliar), 80 to 100% in experiment [1] (foliar) and 0 to 49% in the experiment with Cochliobolus sativus (setting [3]). The pest or weed control at 4000 ppm in experiment [2] was over 80%.
The matching figures for `COc1cc(CCNc2ncnc3nccnc23)ccc1Oc1nccc(C(F)(F)F)n1` [Compound 97]: 0 to 49%, 80 to 100%, 0 to 49% and over 80%.
Consider `CC(C)OC(=O)c1cnc(Oc2ccc(CCNc3ncnc4nccnc34)cc2)c(Cl)c1` [Compound 164], for which the pest or weed control at 200 µg/mL (in the experiment on Colletotricum lagenarium (foliar); in experiment [1] (foliar); in the experiment with Cochliobolus sativus (setting [3])) was 0 to 49% in each case. For the same compound, the pest or weed control at 4000 ppm in experiment [2] is over 80%.
`Cc1nc2ncnc(NCCc3ccc(Oc4ncc(C(F)(F)F)cc4F)cc3)c2nc1C` [Compound 163]: the values for the pest or weed control at 200 µg/mL (in the experiment on Colletotricum lagenarium (foliar); in experiment [1] (foliar); in the experiment on Cochliobolus sativus (setting [3])) were 80 to 100%, 80 to 100% and 0 to 49%, respectively. Besides, in experiment [2], the pest or weed control at 4000 ppm is over 80%.
`COc1cc(C(F)(F)F)cc(Oc2ccc(CCNc3ncnc4nc(C)c(C)nc34)cc2)n1` [Compound 198]: the pest or weed control at 200 µg/mL (with Colletotricum lagenarium (foliar); in experiment [1] (foliar); in the experiment with Cochliobolus sativus (setting [3])) was 0 to 49% throughout. The pest or weed control at 4000 ppm in experiment [2] is over 80%.
As to `CCOc1cc(CCNc2ncnc3nccnc23)ccc1Oc1ccc(C(F)(F)F)cn1` [Compound 157], the pest or weed control at 200 µg/mL with Colletotricum lagenarium (foliar) fell in the range of 0 to 49%; in experiment [1] (foliar), 80 to 100%; in the experiment with Cochliobolus sativus (setting [3]), 0 to 49%. Besides, the pest or weed control at 4000 ppm in experiment [2] is over 80%.
As to `Cc1cc(CCNc2ncnc3nccnc23)ccc1Oc1cncc(Cl)c1C#N` [Compound 142], the pest or weed control at 200 µg/mL in the experiment with Colletotricum lagenarium (foliar) is 0 to 49%; in experiment [1] (foliar), 80 to 100%; in the experiment with Cochliobolus sativus (setting [3]), 0 to 49%. Also, the pest or weed control at 4000 ppm in experiment [2] is over 80%.
For the compound `Fc1cc(Oc2ncc(C(F)(F)F)cc2F)ccc1CCNc1ncnc2nccnc12` [Compound 114], the values for the pest or weed control at 200 µg/mL (with Colletotricum lagenarium (foliar); in experiment [1] (foliar); in the experiment on Cochliobolus sativus (setting [3])) were 0 to 49%, 80 to 100% and 0 to 49%, respectively. Further, the pest or weed control at 4000 ppm in experiment [2] was over 80%.
`FC(F)c1ccnc(Oc2ccc(CCNc3ncnc4nccnc34)cc2)c1` [Compound 101]: the pest or weed control at 200 µg/mL was in the range of 80 to 100% in the experiment on Colletotricum lagenarium (foliar), 80 to 100% in experiment [1] (foliar) and 0 to 49% in the experiment on Cochliobolus sativus (setting [3]). The pest or weed control at 4000 ppm in experiment [2] is over 80%.
On to `COc1cc(CCNc2ncnc3nccnc23)ccc1Oc1cc(C(F)(F)F)ccn1` [Compound 51], for which the pest or weed control at 200 µg/mL with Colletotricum lagenarium (foliar) is 50 to 79%; in experiment [1] (foliar), 80 to 100%; in the experiment on Cochliobolus sativus (setting [3]), 0 to 49%. Also, the pest or weed control at 4000 ppm in experiment [2] was over 80%.
In the case of `COc1cc(CCNc2ncnc3nccnc23)ccc1Oc1cc(C(C)C)ccn1` [Compound 204], the figures for the pest or weed control at 200 µg/mL (with Colletotricum lagenarium (foliar spray); in experiment [1] (foliar spray); with Cochliobolus sativus (setting [4])) were 0 to 49%, 80 to 100% and 0 to 49%, respectively. In experiment [2], the pest or weed control at 4000 ppm was over 80%.
Turning to `FC(F)(F)c1cccc(-c2ccc(CCNc3ncnc4nccnc34)cc2)c1` [Compound 122], the pest or weed control at 200 µg/mL with Colletotricum lagenarium (foliar) was 0 to 49%; in experiment [1] (foliar) it was 50 to 79%; with Cochliobolus sativus (Bipolaris sorokiniana, foliar, read-out: COCHSA percent control), 0 to 49%. Besides, the pest or weed control at 4000 ppm in experiment [2] is over 80%.
Turning to `CC(=O)Oc1cc(CCNc2ncnc3nccnc23)ccc1Oc1cc(C(F)(F)F)ccn1` [Compound 190, Acetic acid 5-[2-(pteridin-4-ylamino)-ethyl]-2-(4-trifluoromethylpyridin-2-yloxy)-phenyl ester], the pest or weed control at 200 µg/mL (in the experiment on Colletotricum lagenarium (foliar); in experiment [1] (foliar); with Cochliobolus sativus (setting [3])) was 0 to 49% each time. Also, in experiment [2], the pest or weed control at 4000 ppm was over 80%.
On to `COc1ccc(CCNc2ncnc3nc(C)c(C)nc23)cc1` [Compound 131], for which the values for the pest or weed control at 200 µg/mL (in the experiment on Colletotricum lagenarium (foliar); in experiment [1] (foliar); in the experiment with Cochliobolus sativus (setting [3])) were 0 to 49%, 80 to 100% and 0 to 49%, respectively. For the same compound, the pest or weed control at 4000 ppm in experiment [2] was over 80%.
On to `COC(=O)c1cnc(Oc2ccc(CCNc3ncnc4nccnc34)cc2)cc1C(F)(F)F` [Compound 202], for which the pest or weed control at 200 µg/mL in the experiment on Colletotricum lagenarium (foliar spray) is 0 to 49%; in experiment [1] (foliar spray), 80 to 100%; in the experiment on Cochliobolus sativus (setting [4]), 0 to 49%. Besides, in experiment [2], the pest or weed control at 4000 ppm was over 80%.
As to `Fc1c(F)c(C(F)(F)F)c(F)c(F)c1Oc1ccc(CCNc2ncnc3nccnc23)cc1` [Compound 112], the pest or weed control at 200 µg/mL in the experiment with Colletotricum lagenarium (foliar) lay in the range of 0 to 49%; in experiment [1] (foliar), 80 to 100%; with Cochliobolus sativus (setting [3]) it was 0 to 49%. Moreover, the pest or weed control at 4000 ppm in experiment [2] is over 80%.
For `COc1cc(CCNc2ncnc3nccnc23)ccc1Oc1ccc(C(F)(F)F)cn1` [Compound 49], the pest or weed control at 200 µg/mL lay within 50 to 79% in the experiment on Colletotricum lagenarium (foliar), 80 to 100% in experiment [1] (foliar) and 50 to 79% in the experiment with Cochliobolus sativus (setting [3]). Moreover, the pest or weed control at 4000 ppm in experiment [2] was over 80%.
For the compound `Fc1cnc(Oc2ccc(CCNc3ncnc4nccnc34)cc2)c(F)c1C(F)(F)F` [Compound 106], the pest or weed control at 200 µg/mL in the experiment with Colletotricum lagenarium (foliar) was 0 to 49%; in experiment [1] (foliar) it was 80 to 100%; in the experiment with Cochliobolus sativus (setting [3]), 0 to 49%. For the same compound, the pest or weed control at 4000 ppm in experiment [2] was over 80%.
